# Data reported in US20100029669A1, “3-(SUBSTITUTED ETHYL)-RIFAMYCIN DERIVATIVES USEFUL AS ANTIMICROBIAL AGENTS” (priority 2008, published 2010).
# Key:
# [1] = tested on: Staphylococcus aureus OC4172; experiment: MIC, microdilution broth method (NCCLS), strain C; type: cell-based; settings: cation adjusted Mueller-Hinton broth, 35° C., 16-20 hours
# [2] = tested on: Enterococcus faecium OC 3312 vancomycin resistant; experiment: MIC, microdilution broth method (NCCLS), strain A; settings: read-out: MIC A Strain
# Experimental: (§1) The in vitro antimicrobial activity of representative compounds of the present invention was determined by the microdilution broth method following the test method from the National Committee for Clinical Laboratory Standards (NCCLS).
# (§2) In this method two-fold serial dilutions of drug in cation adjusted Mueller-Hinton broth were added to wells in microdilution trays. The test organisms were prepared by adjusting the turbidity of actively growing broth cultures so that the final concentration of test organism after it is added to the wells was approximately 5×10^4 CFU/well. Following inoculation of the microdilution trays, the trays were incubated at 35° C. for 16-20 hours and then read. The amount of growth in the wells containing the test compound was compared with the amount of growth in the growth-control wells (no test compound) used in each tray.
# [3] = tested on: Methicillin-resistant Staphylococcus aureus OC 3726 COL; experiment: MIC, microdilution broth method (NCCLS), strain B; settings: read-out: MIC B Strain
# Experimental: as §1, §2
# [4] = tested on: Methicillin-resistant Staphylococcus aureus OC 2878; experiment: MIC, microdilution broth method (NCCLS), strain D; settings: read-out: MIC D Strain
# Experimental: as §1, §2
Compound,MIC [1] [µg/mL],MIC [2] [µg/mL],MIC [3] [µg/mL],MIC [4] [µg/mL]
CO[C@H]1/C=C/O[C@@]2(C)Oc3c(C)c(O)c4c(c3C2=O)C(=O)C(CC[N+](=O)[O-])=C(NC(=O)/C(C)=C\C=C\[C@H](C)[C@H](O)[C@@H](C)[C@@H](O)[C@@H](C)[C@H](OC(C)=O)[C@@H]1C)C4=O [Compound 1],≤ 0.03,0.12,≤ 0.03,≤ 0.03
CO[C@H]1/C=C/O[C@@]2(C)Oc3c(C)c(O)c4c(O)c(c(CCNCc5ccc(-n6cccn6)cc5)c(O)c4c3C2=O)NC(=O)/C(C)=C\C=C\[C@H](C)[C@H](O)[C@@H](C)[C@@H](O)[C@@H](C)[C@H](OC(C)=O)[C@@H]1C [Compound 13],0.12,0.5,0.12,0.12
"CO[C@H]1/C=C/O[C@@]2(C)Oc3c(C)c(O)c4c(O)c(c([C@H](O)C[N+](=O)[O-])c(O)c4c3C2=O)NC(=O)/C(C)=C\C=C\[C@H](C)[C@H](O)[C@@H](C)[C@@H](O)[C@@H](C)[C@H](OC(C)=O)[C@@H]1C (single isomer, unassigned) [Compound 5]",8,8,8,8
CO[C@H]1/C=C/O[C@@]2(C)Oc3c(C)c(O)c4c(O)c(c(CCNCc5ccccc5)c(O)c4c3C2=O)NC(=O)/C(C)=C\C=C\[C@H](C)[C@H](O)[C@@H](C)[C@@H](O)[C@@H](C)[C@H](OC(C)=O)[C@@H]1C [Compound 9],≤ 0.03,0.12,≤ 0.03,≤ 0.03
CO[C@H]1/C=C/O[C@@]2(C)Oc3c(C)c(O)c4c(O)c(c(CCNCc5ccc(-c6ncccn6)cc5)c(O)c4c3C2=O)NC(=O)/C(C)=C\C=C\[C@H](C)[C@H](O)[C@@H](C)[C@@H](O)[C@@H](C)[C@H](OC(C)=O)[C@@H]1C [Compound 14],0.5,1,1,0.5
CO[C@H]1/C=C/O[C@@]2(C)Oc3c(C)c(O)c4c(O)c(c(CCN(C)C)c(O)c4c3C2=O)NC(=O)/C(C)=C\C=C\[C@H](C)[C@H](O)[C@@H](C)[C@@H](O)[C@@H](C)[C@H](OC(C)=O)[C@@H]1C [Compound 10],≤ 0.03,0.25,≤ 0.03,0.06
CO[C@H]1/C=C/O[C@@]2(C)Oc3c(C)c(O)c4c(c3C2=O)C(=O)C(C(C[N+](=O)[O-])C[N+](=O)[O-])=C(NC(=O)/C(C)=C\C=C\[C@H](C)[C@H](O)[C@@H](C)[C@@H](O)[C@@H](C)[C@H](OC(C)=O)[C@@H]1C)C4=O [Compound 4],0.5,2,1,0.5
CO[C@H]1/C=C/O[C@@]2(C)Oc3c(C)c(O)c4c(O)c(c(CCN5CCCCC5)c(O)c4c3C2=O)NC(=O)/C(C)=C\C=C\[C@H](C)[C@H](O)[C@@H](C)[C@@H](O)[C@@H](C)[C@H](OC(C)=O)[C@@H]1C [Compound 11],≤ 0.03,0.25,0.06,0.06
CO[C@H]1/C=C/O[C@@]2(C)Oc3c(C)c(O)c4c(O)c(c(C(CN)CN)c(O)c4c3C2=O)NC(=O)/C(C)=C\C=C\[C@H](C)[C@H](O)[C@@H](C)[C@@H](O)[C@@H](C)[C@H](OC(C)=O)[C@@H]1C [Compound 8],0.25,1,0.5,1
CO[C@H]1/C=C/O[C@@]2(C)Oc3c(C)c(O)c4c(O)c(c(C(C[N+](=O)[O-])C[N+](=O)[O-])c(O)c4c3C2=O)NC(=O)/C(C)=C\C=C\[C@H](C)[C@H](O)[C@@H](C)[C@@H](O)[C@@H](C)[C@H](OC(C)=O)[C@@H]1C [Compound 3],0.25,4,0.5,0.25
CO[C@H]1/C=C/O[C@@]2(C)Oc3c(C)c(O)c4c(O)c(c(CCNCc5ccc(-c6cccnn6)cc5)c(O)c4c3C2=O)NC(=O)/C(C)=C\C=C\[C@H](C)[C@H](O)[C@@H](C)[C@@H](O)[C@@H](C)[C@H](OC(C)=O)[C@@H]1C [Compound 15],0.25,1,0.5,0.25
CO[C@H]1/C=C/O[C@@]2(C)Oc3c(C)c(O)c4c(O)c(c(CCNCc5ccc(N6CCN(C)CC6)cc5)c(O)c4c3C2=O)NC(=O)/C(C)=C\C=C\[C@H](C)[C@H](O)[C@@H](C)[C@@H](O)[C@@H](C)[C@H](OC(C)=O)[C@@H]1C [Compound 12],≤ 0.03,0.5,≤ 0.03,≤ 0.03
CO[C@H]1/C=C/O[C@@]2(C)Oc3c(C)c(O)c4c(O)c(c(CC[N+](=O)[O-])c(O)c4c3C2=O)NC(=O)/C(C)=C\C=C\[C@H](C)[C@H](O)[C@@H](C)[C@@H](O)[C@@H](C)[C@H](OC(C)=O)[C@@H]1C [Compound 2],≤ 0.03,1,≤ 0.03,≤ 0.03
